The text below walks through data of ChEMBL document CHEMBL2150937, “Elaiomycins D-F, antimicrobial and cytotoxic azoxides from Streptomyces sp. strain HKI0708” (J Nat Prod, 2012).

The first assay concerns Bacillus subtilis. In words: Antibacterial activity against Bacillus subtilis 6633 B1 assessed as zone of inhibition at 50 ug/disc after 24 hrs by agar diffusion assay. Format: functional. Particulars: 6633 B1, 24 h, read-out: IZ. Background: Agar diffusion results depend on both activity and mobility in agar.
`COC[C@H](/N=[N+]([O-])/C=C/CCCCC(C)=O)[C@H](C)O` [ELAIOMYCIN D]: the zone of inhibition at 50 µg/disc was 0 mm.

For a further assay, the system named is Escherichia coli. Kind of assay: Antibacterial activity against Escherichia coli 458 B4 assessed as zone of inhibition at 50 ug/disc after 24 hrs by agar diffusion assay. The format is functional. As to conditions: 458 B4, 24 h, read-out: IZ.
Turning to `COC[C@H](/N=[N+]([O-])/C=C/CCCCC(C)=O)[C@H](C)O` [ELAIOMYCIN D], the zone of inhibition at 50 µg/disc amounted to 0 mm.

The subject of a further assay is HeLa. In words: Cytotoxicity against human HeLa cells. The format is functional.
Conditions: not given
Usually CC50 stands for the concentration that lowers cell viability or growth by half. Higher therefore signals lower toxicity to the cells. Turning to `COC[C@H](/N=[N+]([O-])/C=C/CCCCC(C)=O)[C@H](C)O` [ELAIOMYCIN D], the CC50 is > 50 µg/mL.

Another assay has as its system Mycolicibacterium vaccae. In words: Antibacterial activity against Mycobacterium vaccae 10670 M4 assessed as zone of inhibition at 50 ug/disc after 24 hrs by agar diffusion assay. As to conditions: 10670 M4, 24 h, read-out: IZ. The format is functional.
For the compound `COC[C@H](/N=[N+]([O-])/C=C/CCCCC(C)=O)[C@H](C)O` [ELAIOMYCIN D], the zone of inhibition at 50 µg/disc amounted to 0 mm.

Another assay relates to Aspergillus niger. In words: Antifungal activity against Aspergillus niger DSM 737 assessed as zone of inhibition at 50 ug/disc after 24 hrs by agar diffusion assay. Format: functional. Particulars: DSM 737, 24 h, read-out: IZ.
Take `COC[C@H](/N=[N+]([O-])/C=C/CCCCC(C)=O)[C@H](C)O` [ELAIOMYCIN D]: the zone of inhibition at 50 µg/disc was 0 mm.

A further assay relates to Aspergillus terreus. Kind of assay: Antifungal activity against amphotericin-resistant Aspergillus terreus DSM 826 assessed as zone of inhibition at 50 ug/disc after 24 hrs by agar diffusion assay. Particulars: DSM 826, 24 h, read-out: IZ. The format is functional.
As to `COC[C@H](/N=[N+]([O-])/C=C/CCCCC(C)=O)[C@H](C)O` [ELAIOMYCIN D], the zone of inhibition at 50 µg/disc was determined as 0 mm.

The subject of the next assay is Enterococcus faecalis. Kind of assay: Antibacterial activity against vancomycin-resistant Enterococcus faecalis 1528 R10 assessed as zone of inhibition at 50 ug/disc after 24 hrs by agar diffusion assay. Particulars: 1528 R10, 24 h, read-out: IZ. Format: functional.
As for `COC[C@H](/N=[N+]([O-])/C=C/CCCCC(C)=O)[C@H](C)O` [ELAIOMYCIN D], the zone of inhibition at 50 µg/disc came to 0 mm.

The next assay relates to HUVEC. In words: Antiproliferative activity against HUVEC. Particulars: Homo sapiens. The format is functional.
The term GI50 denotes the concentration giving 50% growth inhibition. Take `COC[C@H](/N=[N+]([O-])/C=C/CCCCC(C)=O)[C@H](C)O` [ELAIOMYCIN D]: the concentration for 50% growth inhibition (GI50) was > 50 µg/mL.

The next assay relates to Pseudomonas aeruginosa. Kind of assay: Antibacterial activity against Pseudomonas aeruginosa K 799/61 B9 assessed as zone of inhibition at 50 ug/disc after 24 hrs by agar diffusion assay. Format: functional. As to conditions: K 799/61 B9, 24 h, read-out: IZ.
As to `COC[C@H](/N=[N+]([O-])/C=C/CCCCC(C)=O)[C@H](C)O` [ELAIOMYCIN D], the zone of inhibition at 50 µg/disc is 0 mm.

In a further assay the test system is Sporobolomyces salmonicolor. Kind of assay: Antifungal activity against Sporidiobolus salmonicolor 549 H4 assessed as zone of inhibition at 50 ug/disc after 24 hrs by agar diffusion assay. Format: functional. As to conditions: 549 H4, 24 h, read-out: IZ.
`COC[C@H](/N=[N+]([O-])/C=C/CCCCC(C)=O)[C@H](C)O` [ELAIOMYCIN D]: the zone of inhibition at 50 µg/disc stood at 0 mm.

Another assay relates to Penicillium chrysogenum. Kind of assay: Antifungal activity against Penicillium notatum JP36 P1 assessed as zone of inhibition at 50 ug/disc after 24 hrs by agar diffusion assay. The format is functional. As to conditions: JP36 P1, 24 h, read-out: IZ.
Take `COC[C@H](/N=[N+]([O-])/C=C/CCCCC(C)=O)[C@H](C)O` [ELAIOMYCIN D]: the zone of inhibition at 50 µg/disc was 0 mm.

For the next assay, the system named is Aspergillus fumigatus. Kind of assay: Antifungal activity against Aspergillus fumigatus ATCC 46645 assessed as zone of inhibition at 50 ug/disc after 24 hrs by agar diffusion assay. Format: functional. As to conditions: ATCC 46645, 24 h, read-out: IZ.
Take `COC[C@H](/N=[N+]([O-])/C=C/CCCCC(C)=O)[C@H](C)O` [ELAIOMYCIN D]: the zone of inhibition at 50 µg/disc turned out to be 0 mm.

For a further assay, the system named is Staphylococcus aureus. In words: Antibacterial activity against Staphylococcus aureus 511 B3 assessed as zone of inhibition at 50 ug/disc after 24 hrs by agar diffusion assay. Format: functional. Particulars: 511 B3, 24 h, read-out: IZ.
Regarding `COC[C@H](/N=[N+]([O-])/C=C/CCCCC(C)=O)[C@H](C)O` [ELAIOMYCIN D], the zone of inhibition at 50 µg/disc turned out to be 0 mm.

Another assay concerns Candida albicans. Kind of assay: Antifungal activity against Candida albicans H8 assessed as zone of inhibition at 50 ug/disc after 24 hrs by agar diffusion assay. As to conditions: H8, 24 h, read-out: IZ. The format is functional.
For the compound `COC[C@H](/N=[N+]([O-])/C=C/CCCCC(C)=O)[C@H](C)O` [ELAIOMYCIN D], the zone of inhibition at 50 µg/disc was 0 mm.

The subject of a further assay is Staphylococcus aureus. In words: Antibacterial activity against methicillin-resistant Staphylococcus aureus 134/93 R9 assessed as zone of inhibition at 50 ug/disc after 24 hrs by agar diffusion assay. The format is functional. As to conditions: 134/93 R9, 24 h, read-out: IZ.
For `COC[C@H](/N=[N+]([O-])/C=C/CCCCC(C)=O)[C@H](C)O` [ELAIOMYCIN D], the zone of inhibition at 50 µg/disc was 0 mm.

Another assay deals with Pseudomonas aeruginosa. Kind of assay: Antibacterial activity against Pseudomonas aeruginosa SG 137 B7 assessed as zone of inhibition at 50 ug/disc after 24 hrs by agar diffusion assay. Format: functional. Particulars: SG 137 B7, 24 h, read-out: IZ.
For the compound `COC[C@H](/N=[N+]([O-])/C=C/CCCCC(C)=O)[C@H](C)O` [ELAIOMYCIN D], the zone of inhibition at 50 µg/disc was 0 mm.

The subject of another assay is K562. Kind of assay: Antiproliferative activity against human K562 cells. Format: functional.
Conditions: not given
For `COC[C@H](/N=[N+]([O-])/C=C/CCCCC(C)=O)[C@H](C)O` [ELAIOMYCIN D], the 50% growth inhibitory concentration (GI50) is > 50 µg/mL.
